Data: paper PMC5384962, “First-in-human studies of seletalisib, an orally bioavailable small-molecule PI3Kδ inhibitor for the treatment of immune and inflammatory diseases” (European Journal of Clinical Pharmacology, 2017)
Like-named read-outs stand apart in the source and are kept apart here.

What was measured:
psoriatic lesional skin = experiment: Study-1 Part-B exploratory PD in subjects with mild-to-moderate psoriasis (lesion scores, lesional skin biopsies); assay type: in vivo, human; conditions: six subjects with psoriasis
Experimental: To enable assessment of target engagement, the following exploratory PD assessments were performed at various time points prior to and following study drug administration in those subjects with mild-to-moderate psoriasis. Size and appearance of the psoriatic lesion of interest (selected at screening) were assessed by lesion severity score and lesion area. Total affected area (percentage of BSA) and Physician’s Global Assessment were assessed to evaluate overall disease severity. Histological assessments of skin biopsies (6 mm) were performed by immunofluorescent microscopy of frozen sections of lesional skin, except for haematoxylin and eosin staining and IL-17 staining which were performed on formalin fixed paraffin embedded sections. Numbers of T cells (CD3), Langerhans cells (CD1a), neutrophils (MPO) and dermal dendritic cells (CD11c) were determined.  Fig. 3 Cellular responses in lesional biopsies. Lesional biopsies were taken on days 4 and 14 from each patient, and subsequently fixed, sectioned and, using immunofluorescence, stained for CD11c (dendritic cells), CD1a (Langerhans cells), CD3 (T cells) and myeloperoxidase (MPO; neutrophils). Cells were identified using a nuclear stain. Images acquired on a slide scanner were analysed using Definiens software and, following thresholding, positive cells identified. The number of positive cells per square millimeter was calculated and the fold-change in cell density from baseline was calculated. Data are mean ± SD (placebo, n = 3; treated, n = 6)

[1] = Study-2 multiple-dose day 14 pharmacokinetics (plasma); assay type: in vivo, human; conditions: for CLss/F / Cmaxss / Vzss/F / AUC(0-t) / MRT / half-life / LF: geo mean (GeoCV%); for AUC(0-t) / MRT / half-life / Tmax: human, plasma, oral; for LF: linearity factor AUC(0–24)ss/AUC
Description: These were phase I, randomised, double-blind, placebo-controlled studies designed to evaluate the safety, tolerability, PK and PD profiles of seletalisib following oral administration of single ascending doses and multiple ascending doses. Study-1 was a first-in-human, double-blind (sponsor-, investigator- and subject-blind) study that had two parts: Part-A evaluated seletalisib (single ascending doses) in healthy adults (including evaluation of food effects; Table 1); Part-B evaluated seletalisib (multiple ascending doses) in healthy adults and subjects with mild-to-moderate psoriasis. Study-2 was also a double-blind study of seletalisib (single and multiple ascending doses) in healthy subjects, which investigated higher doses.
Plasma concentrations of seletalisib were measured by high-performance liquid chromatography with tandem mass spectrometry (see Online Resource S1 for further details). The following PK parameters were determined in each study: AUC for seletalisib, maximum observed plasma concentration of seletalisib after a single dose (Cmax) and at steady-state (Cmaxss), time of occurrence of Cmax (tmax, obtained directly from the observed plasma concentration-time curves), minimum observed plasma concentration of seletalisib at steady-state immediately before the next dose would be administered (Ctrough), apparent terminal half-life, apparent volume of distribution after single dosing (Vz/F) and at steady-state (Vzss/F) and apparent total body clearance after single dosing (CL/F) and at steady-state (CLss/F). Accumulation factor based on AUC(0–24) [R(AUC)] and accumulation factor based on Cmax [R(Cmax)] were determined on multiple dose day 14. The following study-specific PK parameters were also determined: Study-1, total amount of seletalisib excreted in urine (Ae), renal clearance (CLr) and fraction of drug excreted in urine; Study-2, AUC(0–10) in BID dose groups, terminal elimination rate constant in plasma (λz), mean residence time (MRT) and linearity factor (LF [AUC(0–24)ss/AUC]).
Methods for the calculation of seletalisib PK parameters are detailed in Online Resource S1.
Seletalisib PK parameters were calculated via non-compartmental analysis methods from the individual concentration-time data using Phoenix WinNonlin version 6.2 (Certara, Princeton, NJ, USA). Urine (Study-1 only) and plasma PK parameters of seletalisib were reported for each subject and summarised by study part and dose group. Geometric mean and percentage geometric coefficient of variation (GeoCV%) were reported for all parameters except for tmax, which was reported using median and range. Dose proportionality for AUC and Cmax at Day_1 (Study-1 [Part-A & Part-B]; Study-2, single ascending dose-Day_1) and at steady state at Day_14 (Study-1 [Part-B]; Study-2, multiple ascending dose-Day_14) was examined via the power model and reported graphically. In Study-1, an assessment of food effect (fed versus fasted) was made for Cmax and AUC from the data for subjects who received the same dose in fed and fasted states in Part-A.

[2] = 15 mg, relative to placebo, lesional biopsies
[3] = power model, Study-2 multiple-dose Day 14, QD groups

SMILES: [O-][n+]1cccc(-c2nc3c(Cl)cccc3cc2[C@@H](Nc2ncnc3cccnc23)C(F)(F)F)c1 [Seletalisib, seletalisib]
- lesion severity score, total affected area (% BSA), lesion area, Physician’s Global Assessment (psoriatic lesional skin; 15 mg for 14 days): improvements in these parameters were seen in some of the six subjects
- numbers of dermal inflammatory cells (CD3+, CD11c+ and MPO+ cells) (psoriatic lesional skin; [2]): trend towards reduced numbers
- resident Langerhans cells (CD1a+ cells) (psoriatic lesional skin; [2]): return of the resident Langerhans cells
- CLss/F ([1]; Study-2, 30 mg QD, Day 14): 2.13 (39.1) L/h
- Cmaxss ([1]; Study-2, 30 mg QD, Day 14): 897.8 (35.4) ng/mL
- Vzss/F ([1]; Study-2, 30 mg QD, Day 14): 64.8 (24.2) L
- CLss/F ([1]; Study-2, 45 mg QD, Day 14): 2.65 (36.9) L/h
- Cmaxss ([1]; Study-2, 45 mg QD, Day 14): 1114 (27.7) ng/mL
- Vzss/F ([1]; Study-2, 45 mg QD, Day 14): 74.5 (27.9) L
- CLss/F ([1]; Study-2, 60 mg QD, Day 14): 2.00 (32.5) L/h
- Cmaxss ([1]; Study-2, 60 mg QD, Day 14): 1957 (30.2) ng/mL
- Vzss/F ([1]; Study-2, 60 mg QD, Day 14): 56.7 (33.3) L
- CLss/F ([1]; Study-2, 90 mg QD, Day 14): 2.33 (19.7) L/h
- Cmaxss ([1]; Study-2, 90 mg QD, Day 14): 2355 (17.8) ng/mL
- Vzss/F ([1]; Study-2, 90 mg QD, Day 14): 68.0 (23.9) L
- AUC(0-t) ([1]; 30 mg, Study-2, 30 mg BID, Day 14, read-out: AUC(0–10)): 10600 ng·h/mL
- AUC(0-t) ([1]; 30 mg, Study-2, 30 mg QD, Day 14, read-out: AUC(0–24)): 14100 ng·h/mL
- AUC(0-t) ([1]; 30 mg, Study-2, 30 mg QD, Day 14, read-out: AUC(0–t)): 24900 ng·h/mL
- AUC(0-t) ([1]; 45 mg, Study-2, 45 mg QD, Day 14, read-out: AUC(0–24)): 17000 ng·h/mL
- AUC(0-t) ([1]; 45 mg, Study-2, 45 mg QD, Day 14, read-out: AUC(0–t)): 30100 ng·h/mL
- AUC(0-t) ([1]; 60 mg, Study-2, 60 mg QD, Day 14, read-out: AUC(0–24)): 30000 ng·h/mL
- AUC(0-t) ([1]; 60 mg, Study-2, 60 mg QD, Day 14, read-out: AUC(0–t)): 51600 ng·h/mL
- AUC(0-t) ([1]; 90 mg, Study-2, 90 mg QD, Day 14, read-out: AUC(0–24)): 38600 ng·h/mL
- AUC(0-t) ([1]; 90 mg, Study-2, 90 mg QD, Day 14, read-out: AUC(0–t)): 67600 ng·h/mL
- MRT ([1]; Study-2, 30 mg QD, Day 14): 24.9 h
- half-life ([1]; Study-2, 30 mg QD, Day 14): 24.6 h
- Tmax ([1]; Study-2, 30 mg QD, Day 14, median (range), read-out: tmax): 4 h
- MRT ([1]; Study-2, 45 mg QD, Day 14): 25.1 h
- half-life ([1]; Study-2, 45 mg QD, Day 14): 28.5 h
- Tmax ([1]; Study-2, 45 mg QD, Day 14, median (range), read-out: tmax): 4 h
- MRT ([1]; Study-2, 60 mg QD, Day 14): 24.2 h
- half-life ([1]; Study-2, 60 mg QD, Day 14): 24.6 h
- Tmax ([1]; Study-2, 60 mg QD, Day 14, median (range), read-out: tmax): 3.5 h
- MRT ([1]; Study-2, 90 mg QD, Day 14): 24.7 h
- half-life ([1]; Study-2, 90 mg QD, Day 14): 24.6 h
- Tmax ([1]; Study-2, 90 mg QD, Day 14, median (range), read-out: tmax): 4 h
- Tmax ([1]; Study-2, day 14, fed, range across groups, read-out: time to peak plasma concentration): 3.5 to 4 h
- LF ([1]; Study-2, 30 mg QD, Day 14): 1.275 (16.7)
- LF ([1]; Study-2, 45 mg QD, Day 14): 1.028 (26.4)
- LF ([1]; Study-2, 60 mg QD, Day 14): 1.160 (31.8)
- LF ([1]; Study-2, 90 mg QD, Day 14): 1.127 (25.9)
- Dose proportionality of Cmaxss (ng/mL): Dose (beta), Estimate [1, 3]: 0.96
- Dose proportionality of Cmaxss (ng/mL): Intercept, Estimate [1, 3]: 3.52
